# In patent US5096911A, “Alteration of rate and character of hair growth” (priority 1990, dated 1992):
# Legend:
# [1] = system: Hamster flank organ hair; assay: Inhibition of hair growth: hamster flank organ hair mass after topical application; format: in vivo, male intact Golden Syrian hamsters; conditions: three weeks; for Percent Inhibition (of hair mass vs vehicle-treated organ) / Hamster Flank Organ Hair Mass, Treated (mean): once a day, five days a week
# Description: Acivicin (Sigma Chemical Co., St. Louis) was mixed with separate portions of the foregoing vehicle to provide specimens containing 1,2, and 6% by weight respectively of the inhibitor and the pH was adjusted to pH 7.5 with sodium hydroxide.
# Four groups (eight animals in each group) of male intact Golden Syrian hamsters were provided. These animals were considered acceptable models for human beard hair growth in that they display oval shaped flank organs, one on each side, each about 8 mm. in major diameter, which grow thick black and coarse hair similar to human beard hair. These organs produce hair in response to androgens in the hamster. The flank organs of each hamster were depilated by applying a thioglycolate- based chemical depilatory (Surgex), and to one organ of each animal was applied 10-25 mg. of vehicle alone once a day, while to the other organ of each animal was applied an equal amount of vehicle containing inhibitor. After three weeks of such applications (five days a week), the flank organs were shaved and the amount of recovered hair (hair mass) from each was weighed. The extent of reduction in hair growth by the inhibitor was expressed as the percent decrease in hair mass on the organ treated with inhibitor as compared to the organ treated with vehicle alone. As a control, one group of eight animals had both flank organs of each animal treated with vehicle alone.
# A composition was prepared containing 5% by weight of bromsulphalein disodium in the vehicle described in Example I above, and applied to hamster flank organs under the same conditions as described in Example 1.
# The anthglutin prepared as described above was dissolved in specimens of the vehicle described in Example 1 and applied to the flank organs of groups of hamsters in the same manner as described in Example 1, a group of eight animals being used for each different composition.
# [2] = system: hair follicle gamma-glutamyl transpeptidase; assay: Inhibition of hair follicle gamma-glutamyl transpeptidase activity; format: biochemical
# [3] = system: gamma-glutamyl transpeptidase; conditions: Japanese Patent No. 53-127,432; Minato, Archives Biochem. Biophy., Vol. 192, 235-240 (1979); cited from earlier work
# [4] = system: follicle enzyme; assay: Inhibition of follicle enzyme activity after topical treatment over three weeks; format: in vivo, Golden Syrian hamsters; conditions: 6% solution, three week period
smiles,measurement,setting,value
"O=C1OC(c2ccc(O)c(S(=O)(=O)O)c2)(c2ccc(O)c(S(=O)(=O)O)c2)c2c(Br)c(Br)c(Br)c(Br)c21 [bromsulphalein disodium, 5,5'-(4,5,6,7-tetrabromo-3-oxo-1(3H)-isobenzofuranylidene) bis[2-hydroxybenzenesulfonic acid]]",inhibition of hair mass,"[1]; 5% by weight bromsulphalein disodium, topical",32%
"N[C@@H](CCC(=O)NNc1ccccc1C(=O)O)C(=O)O [Anthglutin, 1-gamma-L-glutamyl-2 (2-carboxyphenyl)-hydrazine]",inhibition of the activity / inhibitory affinity for hair follicle gamma-glutamyl transpeptidase,[2],strong inhibitory affinity
same,Percent Inhibition (of hair mass vs vehicle-treated organ),"[1]; anthglutin 0.5%, topical",10.7%
same,"Hamster Flank Organ Hair Mass, Treated (mean)","[1]; anthglutin 0.5%, topical, contralateral vehicle organ 2.03 mg",1.81 mg
same,Percent Inhibition (of hair mass vs vehicle-treated organ),"[1]; anthglutin 1.0%, topical",16.7%
same,"Hamster Flank Organ Hair Mass, Treated (mean)","[1]; anthglutin 1.0%, topical, contralateral vehicle organ 1.92 mg",1.60 mg
same,Percent Inhibition (of hair mass vs vehicle-treated organ),"[1]; anthglutin 2.0%, topical",38.6%
same,"Hamster Flank Organ Hair Mass, Treated (mean)","[1]; anthglutin 2.0%, topical, contralateral vehicle organ 2.57 mg",1.58 mg
same,Percent Inhibition (of hair mass vs vehicle-treated organ),"[1]; anthglutin 6.0%, topical",67.2%
same,"Hamster Flank Organ Hair Mass, Treated (mean)","[1]; anthglutin 6.0%, topical, contralateral vehicle organ 2.26 mg",0.74 mg
same,inhibition of gamma-glutamyl transpeptidase,[3],specific inhibitor of gamma-glutamyl transpeptidase
"N[C@H](C(=O)O)[C@@H]1CC(Cl)=NO1 [Acivicin, (alpha S,5S)-amino-3-chloro-4,5-dihydro-isoxazole acetic acid]",Percent Inhibition (of hair mass vs vehicle-treated organ),"[1]; acivicin 1.0%, topical",18.2%
same,"Hamster Flank Organ Hair Mass, Treated (mean)","[1]; acivicin 1.0%, topical, contralateral vehicle organ 1.04 mg",0.85 mg
same,Percent Inhibition (of hair mass vs vehicle-treated organ),"[1]; acivicin 2.0%, topical",57.9%
same,"Hamster Flank Organ Hair Mass, Treated (mean)","[1]; acivicin 2.0%, topical, contralateral vehicle organ 1.33 mg",0.56 mg
same,Percent Inhibition (of hair mass vs vehicle-treated organ),"[1]; acivicin 6.0%, topical",81.0%
same,"Hamster Flank Organ Hair Mass, Treated (mean)","[1]; acivicin 6.0%, topical, contralateral vehicle organ 0.79 mg",0.15 mg
same,character of hair on the treated organ vs untreated organ,[1]; topical acivicin,more vellus in nature
same,inhibition of follicle enzyme activity,[4],about 87%
